Measurements taken from patent US11555210B2, “Microbe having increased tolerance to phenolic fermentation inhibitors” (University of Ottawa, priority 2018, dated 2023).
Entries after “also recorded” stand apart in the source; their conditions may differ.

Columns and labels:
zwf1Δ (YKB4794) = test: dot assay on YPD agar plates; format: cell-based, S. cerevisiae; conditions: 10 mM FA, 35 mM 4-HBA or 1 mM CA, 48 hr at 30° C., compared to wild type
Procedure: Wild type (BY4741) along with zwf1Δ (YKB4794), sol2Δ (YKB4847), sol3Δ (YKB4848), gnd1Δ (YKB4797), gnd2Δ (YKB4850), rpe1Δ (YKB4795), tal1Δ (YKB4851) and tkl1Δ (YKB4796) deletion strains were grown to mid log phase in YPD medium prior to being diluted into fresh medium to an OD600of 0.1. Four 10-fold serial dilutions were spotted onto YPD agar plates containing either 1 mM coniferyl aldehyde (1 mM CA) or no coniferyl aldehyde (0 mM CA). Plates were incubated for 48 hr at 30° C. and images are representative of three biological replicates.
Wild type (BY4741), bna7Δ (YKB4649) and zwf1Δ (YKB4794) were grown to mid log phase in YPD medium prior to being diluted into fresh medium to an OD600 of 0.1. Four 10-fold serial dilutions were spotted onto YPD agar plates containing either no compound (Untreated), 10 mM ferulic acid (FA), 35 mM 4-hydroxybenzoic acid (4-HBA) or 1 mM coniferyl aldehyde (CA). Plates were incubated for 48 hr at 30° C. and images are representative of three biological replicates.

[1] = tested on: wild-type cells expressing PEX3-RFP, SEC13-RFP or CIT1-RFP; test: co-localization of ROS signal with organelle markers; format: cell-based, S. cerevisiae
Source text: (§1) For co-localization studies, images were obtained as Z-stacks. Co-localization of the fluorescence signals were quantified using the IMARIS software 9.2.1 (Bitplane; http://www.bitplane.com) and a Manders' overlap co-efficient (Manders et al., 1993, Journal of Microscopy. 169, 375-382) was used to evaluate the fraction of RFP pixels (organelle marker) also positive for GFP pixels ([…]). The closer the value is to one, the higher the level of co-localization. The analysis was complemented by performing an object-based quantification where the percentage volume of ROS that localized to the mitochondria and endoplasmic reticulum was measured.

Zwf1 = Zwf1 protein quantification by western blot; format: cell-based, S. cerevisiae; conditions: 2 mM coniferyl aldehyde, 2 hours at 30° C.; ρ=0.00176
Procedure: Protein quantification was carried out by western blots as follows. Overnight cultures of wild type cells were diluted in fresh YPD medium to a final OD600 of 0.1. These were grown at 30° C. until they reached the early log phase. Subsequently, coniferyl aldehyde was added to the cultures to a final concentration of 2 mM and the cultures were further incubated for 2 hours. Whole cell extracts (WCE) were obtained by centrifugation of the cells (3000 rpm for 3 min; 4° C.), washing of cell pellet with chilled sterile water and cell lysis using the Trichloroacetic acid (TCA) protocol (Kao and Osley, 2003, Methods. 31,59-66). Equal number of cells was used for the TCA lysis and equal volumes of WCE were used for the quantitative western blot analysis. […] Prior to the protein level quantification, the linear range of the target protein Zwf1 was determined by loading seven 2-fold dilutions of the WCE to obtain a standard curve of protein load versus band intensity of Zwf1. The amount of Zwf1 in the coniferyl aldehyde treated cultures and the control was quantified using the Image Lab software as previously described (Taylor and Posch, 2014, BioMed Research International. 2014, 361590). This was calculated as the ratio of the Zwf1 band intensity to the intensity of bands in the entire lane signal using the TGX Stain-Free Fast Cast (total proteins). […]

[2] = tested on: Sol2-GFP, Sol3-GFP and Rpe1-GFP; test: fluorescence microscopy of GFP-tagged pentose phosphate pathway proteins; format: cell-based, S. cerevisiae; conditions: 2 mM coniferyl aldehyde
Zwf1-GFP = test: co-localization of Zwf1-GFP with mitochondrial and ER markers; format: cell-based, S. cerevisiae
Source text: as §1
A strain expressing endogenously tagged Zwf1-GFP and either the mitochondrial marker CIT1-RFP or the ER marker SEC13-RFP were imaged as described in Example 5 both before and after 2 hours of treatment with 2 mM coniferyl aldehyde. […] Using the object-based analysis, the percentage volume of Zwf1 localizing to the mitochondria was measured as 47.10±8.04%. Likewise, co-localization of Zwf1-GFP to the ER marker Sec13-RFP was observed, though to a lesser extent, and confirmed by a quantitative analysis using a Mander's overlap co-efficient (0.22±0.07). (FIG. 11B).

[3] = tested on: Saccharomyces cerevisiae ethanol red; conditions: commercial Saccharomyces cerevisiae ethanol red; Adeboye et al., 2014; cited from earlier work
[4] = 2 mM coniferyl aldehyde, object-based analysis
[5] = 2 hours of treatment with 2 mM coniferyl aldehyde

For COc1cc(C=CC=O)ccc1O [coniferyl aldehyde, 4-hydroxy-3-methoxycinnamaldehyde], the “growth of zwf1Δ on agar plates” value (zwf1Δ (YKB4794)) was “no growth; also recorded: limited growth”, the “Manders' overlap co-efficient, ROS with ER marker SEC13-RFP” value ([1]; 2 mM coniferyl aldehyde) was 0.13±0.1 and the “Manders' overlap co-efficient, ROS with mitochondria marker CIT1-RFP” value ([1]; 2 mM coniferyl aldehyde) was 0.45±0.04. The “percentage volume of ROS that localized to the mitochondria” value [1, 4] was 54.1±17.29%, the “total volume of ROS that localized to the ER” value [1, 4] was 26.5±12.8% and the “localization of ROS to peroxisomes” value ([1]; 2 mM coniferyl aldehyde, peroxisome marker PEX3-RFP) was “did not localize to the peroxisomes”. The mitochondrial fragmentation ([1]; after 2 hours of coniferyl aldehyde treatment) was “high degree of mitochondrial fragmentation”, the “increase in Zwf1 protein levels compared to untreated” value (Zwf1) was 1.5 fold and the “localization of Sol2-GFP, Sol3-GFP and Rpe1-GFP signal” value [2] was “concentration of signal into punctate structures”. The “Mander's overlap co-efficient, Zwf1-GFP with ER marker Sec13-RFP” value (Zwf1-GFP; [5]) was 0.22±0.07, the “Manders' overlap coefficient, Zwf1-GFP with mitochondrial marker CIT1-RFP” value (Zwf1-GFP; [5]) was 0.34±0.07 and the “percentage volume of Zwf1 localizing to the mitochondria” value (Zwf1-GFP; 2 hours, 2 mM coniferyl aldehyde, object-based analysis) was 47.10±8.04%. For the same molecule, the “concentration at which the compound kills the yeast” value [3] was 1 mM.
